Source: patent US20240360194A1, “New Peptides as Potent and Selective GIP Receptor Agonists” (Sanofi, priority 2021, published 2024)

Molecular target: T1, human GIP receptor (hGIPR) (Homo sapiens, UniProt P48546)
T1 sequence (P48546 22-466): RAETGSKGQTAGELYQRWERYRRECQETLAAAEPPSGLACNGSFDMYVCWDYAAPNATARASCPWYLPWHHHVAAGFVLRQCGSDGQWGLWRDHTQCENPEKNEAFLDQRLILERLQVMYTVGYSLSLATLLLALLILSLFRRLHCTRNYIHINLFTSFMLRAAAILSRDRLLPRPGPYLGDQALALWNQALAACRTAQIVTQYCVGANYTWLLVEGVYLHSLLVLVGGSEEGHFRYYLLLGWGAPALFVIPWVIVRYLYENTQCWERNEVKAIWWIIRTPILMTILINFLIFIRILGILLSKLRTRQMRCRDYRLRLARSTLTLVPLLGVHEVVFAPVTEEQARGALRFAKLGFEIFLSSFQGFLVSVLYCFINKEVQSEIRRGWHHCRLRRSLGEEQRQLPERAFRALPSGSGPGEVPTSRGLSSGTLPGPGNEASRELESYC
Test: In vitro cellular cAMP assay for GIP receptor efficacy (HEK-293 cell line over-expressing receptor)
Assay type: cell-based

[1] = EC50 hGIPR 0.1% BSA, HEK-293, 0.1% BSA

SMILES | EC50 [1] [nM] | EC50 (EC50 hGIPR 0.1% HSA, HEK-293, 0.1% HSA) [nM]
CC[C@H](C)[C@H](NC(=O)[C@H](CCCNC(=N)N)NC(=O)[C@H](CC(=O)O)NC(=O)[C@H](CCCCNC(=O)COCCOCCNC(=O)COCCOCCNC(=O)CC[C@H](NC(=O)CCCCCCCCCCCCCCCCC(=O)O)C(=O)O)NC(=O)C(C)(C)NC(=O)[C@@H](NC(=O)[C@H](CO)NC(=O)[C@H](CC(C)C)NC(=O)[C@H](CC(=O)O)NC(=O)[C@H](CO)NC(=O)[C@@H](NC(=O)[C@@](C)(CC)NC(=O)[C@@H](NC(=O)CNC(=O)[C@H](CCC(=O)O)NC(=O)C(C)(C)NC(=O)[C@@H](N)Cc1ccc(O)cc1)[C@@H](C)O)[C@@H](C)CC)[C@@H](C)CC)C(=O)N[C@@H](Cc1c[nH]cn1)C(=O)N[C@@H](CCC(N)=O)C(=O)NC(C)(C)C(=O)N[C@@H](CCC(=O)O)C(=O)N[C@@H](Cc1ccccc1)C(=O)N[C@H](C(=O)N[C@@H](CCC(=O)O)C(=O)N[C@@H](Cc1c[nH]c2ccccc12)C(=O)N[C@@H](CC(C)C)C(=O)N[C@@H](CC(C)C)C(=O)N[C@@H](C)C(=O)N[C@@H](CCC(N)=O)C(=O)N[C@@H](CCCNC(=N)N)C(=O)NCC(N)=O)[C@@H](C)CC [SEQ ID NO: 16, H2N-Y-Aib-E-G-T-Iva-I-S-D-L-S-I-Aib-K[{AEEA}2-gGlu-C18OH]-D-R-I-H-Q-Aib-E-F-I-E-W-L-L-A-Q-R-G-NH2] | 0.0243 | –
CC[C@H](C)[C@H](NC(=O)[C@H](Cc1ccccc1)NC(=O)[C@H](CCC(=O)O)NC(=O)[C@H](CCC(=O)O)NC(=O)[C@H](CCC(N)=O)NC(=O)[C@H](Cc1c[nH]cn1)NC(=O)[C@@H](NC(=O)[C@H](CCCNC(=N)N)NC(=O)[C@H](CC(=O)O)NC(=O)[C@H](CCCCNC(=O)COCCOCCNC(=O)COCCOCCNC(=O)CC[C@H](NC(=O)CCCCCCCCCCCCCCCCC(=O)O)C(=O)O)NC(=O)C(C)(C)NC(=O)[C@@H](NC(=O)[C@H](CO)NC(=O)[C@H](CC(C)C)NC(=O)[C@H](CC(=O)O)NC(=O)[C@H](CO)NC(=O)[C@@H](NC(=O)[C@@](C)(CC)NC(=O)[C@@H](NC(=O)CNC(=O)[C@H](CCC(=O)O)NC(=O)C(C)(C)NC(=O)[C@@H](N)Cc1ccc(O)cc1)[C@@H](C)O)[C@@H](C)CC)[C@@H](C)CC)[C@@H](C)CC)C(=O)N[C@@H](CCC(=O)O)C(=O)N[C@@H](Cc1c[nH]c2ccccc12)C(=O)N[C@@H](CC(C)C)C(=O)N[C@@H](CC(C)C)C(=O)N[C@@H](C)C(=O)N[C@@H](CCC(N)=O)C(=O)N[C@@H](CCCNC(=N)N)C(=O)NCC(N)=O [SEQ ID NO: 15, H2N-Y-Aib-E-G-T-Iva-I-S-D-L-S-I-Aib-K[{AEEA}2-gGlu-C18OH]-D-R-I-H-Q-E-E-F-I-E-W-L-L-A-Q-R-G-NH2] | 0.0216 | –
CC[C@H](C)[C@H](NC(=O)[C@H](CCCNC(=N)N)NC(=O)[C@H](CC(=O)O)NC(=O)[C@H](CCCCNC(=O)COCCOCCNC(=O)COCCOCCNC(=O)CC[C@H](NC(=O)CCCCCCCCCCCCCCCCC(=O)O)C(=O)O)NC(=O)C(C)(C)NC(=O)[C@@H](NC(=O)[C@H](CO)NC(=O)[C@H](CC(C)C)NC(=O)[C@H](CC(=O)O)NC(=O)[C@H](CO)NC(=O)[C@@H](NC(=O)[C@H](Cc1ccccc1)NC(=O)[C@@H](NC(=O)CNC(=O)[C@H](CCC(=O)O)NC(=O)C(C)(C)NC(=O)[C@@H](N)Cc1ccc(O)cc1)[C@@H](C)O)[C@@H](C)CC)[C@@H](C)CC)C(=O)N[C@@H](Cc1c[nH]cn1)C(=O)N[C@@H](CCC(N)=O)C(=O)NC(C)(C)C(=O)N[C@@H](CCC(=O)O)C(=O)N[C@@H](Cc1ccccc1)C(=O)N[C@H](C(=O)N[C@@H](CCC(=O)O)C(=O)N[C@@H](Cc1c[nH]c2ccccc12)C(=O)N[C@@H](CC(C)C)C(=O)N[C@@H](CC(C)C)C(=O)N[C@@H](C)C(=O)N[C@@H](CCC(N)=O)C(=O)N[C@@H](CCC(=O)O)C(=O)NCC(N)=O)[C@@H](C)CC [SEQ ID NO: 12, H2N-Y-Aib-E-G-T-F-I-S-D-L-S-I-Aib-K[{AEEA}2-gGlu-C18OH]-D-R-I-H-Q-Aib-E-F-I-E-W-L-L-A-Q-E-G-NH2] | 0.0267 | 0.0011
CC[C@H](C)[C@H](NC(=O)[C@H](Cc1ccccc1)NC(=O)[C@H](CCC(=O)O)NC(=O)[C@H](CCC(=O)O)NC(=O)[C@H](CCC(N)=O)NC(=O)[C@H](Cc1c[nH]cn1)NC(=O)[C@@H](NC(=O)[C@H](CCCNC(=N)N)NC(=O)[C@H](CC(=O)O)NC(=O)[C@H](CCCCNC(=O)COCCOCCNC(=O)COCCOCCNC(=O)CC[C@H](NC(=O)CCCCCCCCCCCCCCCCC(=O)O)C(=O)O)NC(=O)C(C)(C)NC(=O)[C@@H](NC(=O)[C@H](CO)NC(=O)[C@H](CC(C)C)NC(=O)[C@H](CC(=O)O)NC(=O)[C@H](CO)NC(=O)[C@@H](NC(=O)[C@H](Cc1ccccc1)NC(=O)[C@@H](NC(=O)CNC(=O)[C@H](CCC(=O)O)NC(=O)C(C)(C)NC(=O)[C@@H](N)Cc1ccc(O)cc1)[C@@H](C)O)[C@@H](C)CC)[C@@H](C)CC)[C@@H](C)CC)C(=O)N[C@@H](CCC(=O)O)C(=O)N[C@@H](Cc1c[nH]c2ccccc12)C(=O)N[C@@H](CC(C)C)C(=O)N[C@@H](CC(C)C)C(=O)N[C@@H](C)C(=O)N[C@@H](CCC(N)=O)C(=O)N[C@@H](CCCNC(=N)N)C(=O)NCC(N)=O [SEQ ID NO: 4, H2N-Y-Aib-E-G-T-F-I-S-D-L-S-I-Aib-K[{AEEA}2-gGlu-C18OH]-D-R-I-H-Q-E-E-F-I-E-W-L-L-A-Q-R-G-NH2] | 0.0208 | –
